Source: US10464925B2, “Methods to induce targeted protein degradation through bifunctional molecules” (Dana-Farber Cancer Institute, Inc., priority 2015, dated 2019)
Read-outs that look alike come from different tables or passages of the source.

Tests used:
SUM159 = assay: cells; conditions: SUM159, 72 h
ZR-75-1_YMB-1 = assay: cells; conditions: 72 h
MDA-MB-436 = assay: cells; conditions: Homo sapiens, MDA-MB-436, 72 h
HCT116 = assay: cells; conditions: Homo sapiens, HCT-116, 72 h
NCI-H460 = assay: cells; conditions: Homo sapiens, NCI-H460, 72 h
SUM149R = assay: cells; conditions: 72 h
SW1783 = assay: cells; conditions: Homo sapiens, SW1783, 72 h
SKMEL28 = assay: cells; conditions: Homo sapiens, SK-MEL-28, 72 h
MOLT4 = assay: Cell viability, ATPlite 48 hours, MOLT4; type: cell-based; conditions: Homo sapiens, MOLT-4; MOLT4 cells
Protocol: ATP content was measured as a surrogate for cellular viability using ATPlite (Promega).

NCI-H838 = assay: cells; conditions: Homo sapiens, NCI-H838, 72 h
A549 = assay: cells; conditions: Homo sapiens, A549, 72 h
MC116 = assay: cells; conditions: Homo sapiens, MC116, 72 h
KP-N-YN = assay: cells; conditions: 72 h
SUM149 = assay: cells; conditions: SUM149, 72 h
LCLC-103H = assay: cells; conditions: Homo sapiens, 72 h
KP2 = assay: cells; conditions: 72 h
PANC032 = assay: cells; conditions: 72 h
SUM159R = assay: cells; conditions: 72 h
BRDT = BRDT (Homo sapiens, UniProt Q58F21); assay: BRDT IC50 (Table 4); type: binding; conditions: read-out: IC50 (nM) BRDT
SBC-5 = assay: cells; conditions: Homo sapiens, SBC-5, 72 h
ASPC1 = assay: cells; conditions: Homo sapiens, ASPC1, 72 h
NGP = assay: Cell viability, ATPlite 72 hours; type: cell-based; conditions: NGP; for IC50: read-out: IC50 (nM) NGP
MKN45 = assay: cells; conditions: Homo sapiens, MKN-45, 72 h
Cl-1 = assay: cells; conditions: 72 h
SUM185 = assay: cells; conditions: 72 h
NMC-G1 = assay: cells; conditions: 72 h
T47D = assay: cells; conditions: Homo sapiens, 72 h
Calu6 = assay: Cell viability, ATPlite 72 hours; type: cell-based; conditions: Homo sapiens, Calu-6
Protocol: Various cell lines were seeded into 384-well tissue culture-treated plates at a density of 2,000 cells per well in a volume of 50 μL/well. […] After 72 hours of incubation, cells were analyzed for cell viability using the ATPlite (PerkinElmer) Luminescence Assay Kit per the manufacturer's instructions, using ATP content as a surrogate for viable cell number. Luminescence was read on an EnVision 2104 Multilabel Plate Reader (PerkinElmer).

MDA-MB-231 = assay: cells; conditions: Homo sapiens, MDA-MB-231, 72 h
CCF-STTG1 = assay: Cell viability, ATPlite 72 hours; type: cell-based; conditions: Homo sapiens

Cc1sc2c(c1C)C(c1ccc(Cl)cc1)=N[C@@H](CC(=O)NCCCCCCCCNC(=O)COc1cccc3c1C(=O)N(C1CCC(=O)NC1=O)C3=O)c1nnc(C)n1-2 (stereo partly shown) [dBET6]
Emax (SUM159; read-out: Emax (%) SUM159): 12% | IC50 (SUM159; read-out: IC50 (nM) SUM159): 32.5 nM | Emax (ZR-75-1_YMB-1; read-out: Emax (%) ZR-75-1_YMB-1): 21.6% | IC50 (ZR-75-1_YMB-1; read-out: IC50 (nM) ZR-75-1_YMB-1): 23.5 nM | Emax (MDA-MB-436; read-out: Emax (%) MDA-MB-436): 29.5% | IC50 (MDA-MB-436; read-out: IC50 (nM) MDA-MB-436): 39.6 nM | Emax (HCT116; read-out: Emax (%) HCT116): 26.9% | IC50 (HCT116; read-out: IC50 (nM) HCT116): 154 nM | Emax (NCI-H460; read-out: Emax (%) NCI-H460): 34.4% | IC50 (NCI-H460; read-out: IC50 (nM) NCI-H460): 438 nM | Emax (SUM149R; read-out: Emax (%) SUM149R): 10.6% | IC50 (SUM149R; read-out: IC50 (nM) SUM149R): 18.5 nM | Emax (SW1783; read-out: Emax (%) SW1783): 22.2% | IC50 (SW1783; read-out: IC50 (nM) SW1783): 38.2 nM | Emax (SKMEL28; read-out: Emax (%) SKMEL28): 59% | IC50 (SKMEL28; read-out: IC50 (nM) SKMEL28): 474 nM | IC50 (MOLT4): 65.3 nM | Emax (NCI-H838; read-out: Emax (%) NCI-H838): 32.2% | IC50 (NCI-H838; read-out: IC50 (nM) NCI-H838): 52 nM | Emax (A549; read-out: Emax (%) A549): 30.9% | IC50 (A549; read-out: IC50 (nM) A549): 1900 nM | Emax (MC116; read-out: Emax (%) MC116): 0.32% | IC50 (MC116; read-out: IC50 (nM) MC116): 20.5 nM | Emax (KP-N-YN; read-out: Emax (%) KP-N-YN): 42.8% | IC50 (KP-N-YN; read-out: IC50 (nM) KP-N-YN): 9.41 nM | Emax (SUM149; read-out: Emax (%) SUM149): 27.9% | IC50 (SUM149; read-out: IC50 (nM) SUM149): 131 nM | Emax (LCLC-103H; read-out: Emax (%) LCLC-103H): 24% | IC50 (LCLC-103H; read-out: IC50 (nM) LCLC-103H): 84.2 nM | Emax (KP2; read-out: Emax (%) KP2): 20.7% | IC50 (KP2; read-out: IC50 (nM) KP2): 513 nM | Emax (PANC032; read-out: Emax (%) PANC032): 53.2% | IC50 (PANC032; read-out: IC50 (nM) PANC032): 1450 nM | Emax (SUM159R; read-out: Emax (%) SUM159R): 36% | IC50 (SUM159R; read-out: IC50 (nM) SUM159R): 92.4 nM | IC50 (BRDT): 56 nM | Emax (SBC-5; read-out: Emax (%) SBC-5): 21.6% | IC50 (SBC-5; read-out: IC50 (nM) SBC-5): 841 nM | Emax (ASPC1; read-out: Emax (%) ASPC1): 50.4% | IC50 (ASPC1; read-out: IC50 (nM) ASPC1): 1460 nM | Emax (NGP; 72 h, read-out: Emax (%) NGP): 21.9% | IC50 (NGP; 72 h): 188 nM | IC50 (NGP): 188 nM | Emax (MKN45; read-out: Emax (%) MKN45): 19.4% | IC50 (MKN45; read-out: IC50 (nM) MKN45): 41.1 nM | Emax (Cl-1; read-out: Emax (%) Cl-1): 10.7% | IC50 (Cl-1; read-out: IC50 (nM) Cl-1): 23.3 nM | Emax (SUM185; read-out: Emax (%) SUM185): 22.9% | IC50 (SUM185; read-out: IC50 (nM) SUM185): 1.44 nM | Emax (NMC-G1; read-out: Emax (%) NMC-G1): 36.6% | IC50 (NMC-G1; read-out: IC50 (nM) NMC-G1): 70 nM | Emax (T47D; read-out: Emax (%) T47D): 49.4% | IC50 (T47D; read-out: IC50 (nM) T47D): 7.46 nM | Emax (Calu6): 51.7% | IC50 (Calu6): 233 nM | Emax (MDA-MB-231; read-out: Emax (%) MDA-MB-231): 24.2% | IC50 (MDA-MB-231; read-out: IC50 (nM) MDA-MB-231): 146 nM | Emax (CCF-STTG1): 45.8%
